In publication PMC8279417 (Journal of Medicinal Chemistry, 2021):
Like-named read-outs stand apart in the source and are kept apart here.

Assays:
[1] = target: T1, ERα (Homo sapiens, UniProt P03372); experiment: Luciferase reporter gene assay (transactivation), U2OS cells transfected with pSG5-ERα; type: cell-based; details: inhibition of E2-induced (0.03 nM) transactivation
T1 sequence (P03372 1-595): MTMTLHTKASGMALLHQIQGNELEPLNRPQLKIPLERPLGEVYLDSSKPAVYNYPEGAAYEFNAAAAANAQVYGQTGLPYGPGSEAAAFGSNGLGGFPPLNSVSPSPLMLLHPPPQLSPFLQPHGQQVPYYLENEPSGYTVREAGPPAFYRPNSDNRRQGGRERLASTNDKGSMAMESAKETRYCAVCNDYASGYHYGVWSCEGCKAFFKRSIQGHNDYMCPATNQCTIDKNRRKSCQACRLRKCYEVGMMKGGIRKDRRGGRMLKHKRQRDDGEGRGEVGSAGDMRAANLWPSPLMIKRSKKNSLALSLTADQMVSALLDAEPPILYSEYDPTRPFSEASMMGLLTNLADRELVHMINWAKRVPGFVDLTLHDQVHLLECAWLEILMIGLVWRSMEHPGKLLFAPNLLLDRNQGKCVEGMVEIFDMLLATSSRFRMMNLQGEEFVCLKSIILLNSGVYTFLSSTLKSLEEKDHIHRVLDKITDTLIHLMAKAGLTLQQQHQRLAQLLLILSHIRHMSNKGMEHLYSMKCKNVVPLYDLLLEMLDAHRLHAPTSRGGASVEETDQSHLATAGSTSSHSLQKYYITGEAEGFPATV

[2] = target: T2, ERα (Homo sapiens, UniProt P03372); details: for IC50: read-out: TR-FRET ERα IC50, displacement of fluorescent-labeled E2 from the LBD of ERα; for RBA ERα: relative binding affinity compared to E2 (100%)
T2 sequence (P03372 311-547 limits assumed): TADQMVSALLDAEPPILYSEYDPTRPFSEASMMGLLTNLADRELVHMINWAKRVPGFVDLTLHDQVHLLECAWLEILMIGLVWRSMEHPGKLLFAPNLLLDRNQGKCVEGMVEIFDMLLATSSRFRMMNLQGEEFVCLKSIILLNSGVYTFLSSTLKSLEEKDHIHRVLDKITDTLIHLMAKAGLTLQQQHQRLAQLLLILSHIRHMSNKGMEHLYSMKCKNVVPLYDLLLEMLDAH
Procedure: (§1) LanthaScreen TR-FRET ER alpha/beta competitive binding assays (Invitrogen, Carlsbad) were used to investigate the binding affinity to the isolated receptors according to the manufacturer′s protocols. Measurement was performed with an Enspire multimode plate reader (PerkinElmer Life Sciences, Waltham). Calculations were performed with Excel (Microsoft, Redmond) and GraphPad Prism (GraphPad Software, San Diego).

[3] = target: T3, ERβ (Homo sapiens, UniProt Q92731); details: for IC50: read-out: TR-FRET ERβ IC50, displacement of fluorescent-labeled E2 from the LBD of ERβ; for RBA ERβ: relative binding affinity compared to E2 (100%)
Target sequence in this assay (Q92731 264-498 limits assumed): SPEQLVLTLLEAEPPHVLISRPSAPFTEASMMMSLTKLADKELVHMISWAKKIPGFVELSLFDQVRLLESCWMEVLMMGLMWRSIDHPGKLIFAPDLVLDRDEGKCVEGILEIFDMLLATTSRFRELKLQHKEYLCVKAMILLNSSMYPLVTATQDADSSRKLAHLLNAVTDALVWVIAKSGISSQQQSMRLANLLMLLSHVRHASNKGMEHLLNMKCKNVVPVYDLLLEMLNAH
Procedure: as §1

[4] = target: T3, ERβ; experiment: Luciferase reporter gene assay (transactivation), U2OS cells transfected with pSG5-ERβ; type: cell-based; details: inhibition of E2-induced (0.3 nM) transactivation
Target sequence in this assay (Q92731 whole entry, the tested form may be a part): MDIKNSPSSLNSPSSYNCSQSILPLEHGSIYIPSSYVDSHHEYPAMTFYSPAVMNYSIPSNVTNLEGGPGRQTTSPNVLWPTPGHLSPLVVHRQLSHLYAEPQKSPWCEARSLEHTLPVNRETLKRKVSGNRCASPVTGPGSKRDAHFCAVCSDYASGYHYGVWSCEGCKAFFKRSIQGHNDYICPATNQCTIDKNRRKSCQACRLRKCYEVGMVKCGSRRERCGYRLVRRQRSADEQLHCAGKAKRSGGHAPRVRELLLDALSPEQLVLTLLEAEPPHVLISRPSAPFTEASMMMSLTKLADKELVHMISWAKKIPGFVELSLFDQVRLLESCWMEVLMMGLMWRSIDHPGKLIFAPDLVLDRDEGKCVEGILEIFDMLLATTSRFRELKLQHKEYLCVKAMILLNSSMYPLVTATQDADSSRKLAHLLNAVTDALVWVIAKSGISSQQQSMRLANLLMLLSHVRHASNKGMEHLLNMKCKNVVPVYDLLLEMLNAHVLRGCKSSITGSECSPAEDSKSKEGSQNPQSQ

[5] = target: T1, ERα; experiment: In-Cell Western immunoassay, ERα levels in MCF-7 cells; type: cell-based; details: for % ERα remaining [1 μM]: MCF-7 cells, 24 h, compared to the solvent control (DMSO)
Procedure: Degradation was evaluated with the CellTagTM 700 In-Cell Western kit (LI-COR, Lincoln) according to the manufacturer’s protocol. MCF-7 cells were treated, and calculation was performed as previously described.[24]

[6] = target: T3, ERβ; details: E2 34 nM, incubation time 30 min; for IC50: read-out: inhibition of coactivator recruitment IC50, ERβ
Target sequence in this assay (Q92731 whole entry, the tested form may be a part): as above

[7] = target: T2, ERα; experiment: TR-FRET coactivator (PGC-1 peptide) recruitment assay, ERα LBD; type: biochemical; details: E2 4 nM; for IC50: read-out: inhibition of coactivator recruitment IC50, ERα
Procedure: drug concentrations: 5 nM to 3 μM) after an incubation time of 10 or 30 min.
Coactivator recruitment was tested using the LanthaScreen® TR-FRET ERα coactivator assay. The binding
of the fluorescein-labeled PGC1a coactivator peptide to the ERα LBD protein labeled with terbium was

[8] = tested on: MCF-7TamR cells; experiment: Crystal violet assay, MCF-7TamR cells; type: cell-based
[9] = tested on: MDA-MB-231 cells; experiment: Crystal violet assay, MDA-MB-231 cells; type: cell-based
[10] = tested on: MCF-7 cells; experiment: Crystal violet assay, MCF-7 cells; type: cell-based; details: for time to cytocidal effects, MCF-7: time-dependent experiment
[11] = MCF7, read-out: % efficacy [1 μM], downregulation of ERα compared to fulvestrant (100%), MCF-7, 1 μM

In the case of `CCC(=C(c1ccc(O)cc1)c1ccc(/C=C/C(=O)NCCCNC(=O)c2ccc(N3CCN(C(=O)CCCCCCCn4c(=S)[nH]c5ccccc5c4=O)CC3)cc2)cc1)c1ccccc1` (mixture of isomers) [Compound 18], the IC50 [1] is reported as 914 ± 50 nM, the IC50 [2] is reported as 4.23 ± 1.12 nM and the “RBA ERα” value [2] is reported as 7.8%. The IC50 [3] was 6.81 ± 1.86 nM, the “RBA ERβ” value [3] was 10.9% and the IC50 [4] was 157 ± 22 nM. The Emax at 1 µM [5, 11] was 64%.
`CCC(=C(c1ccc(O)cc1)c1ccc(/C=C/C(=O)NCCNC(=O)CCc2nc3cc(OC)ccc3[nH]2)cc1)c1ccccc1` (mixture of isomers) [Compound 31, (E)-3-[4-((E/Z)-1-(4-Hydroxyphenyl)-2-phenylbut-1-enyl)phenyl]-N-[2-(3-(5-methoxy-1H-benzo[d]imidazol-2-yl)propanamido)ethyl]acrylamide] was tested, and the “RBA ERα” value [2] was 12%, the IC50 [3] was 4.88 ± 2.65 nM and the “RBA ERβ” value [3] was 15.2%. For the same molecule, the IC50 [4] was 6.7 ± 2.7 nM and the “% ERα remaining [1 μM]” value [5] was 113.8 ± 4.3%.
`CCC(=C(c1ccc(O)cc1)c1ccc(/C=C/C(=O)NCCCNC(=O)CCc2nc3ccc(OC)cc3[nH]2)cc1)c1ccccc1` (mixture of isomers) [Compound 32, (E)-3-[4-((E/Z)-1-(4-Hydroxyphenyl)-2-phenylbut-1-enyl)phenyl]-N-[3-(3-(5-methoxy-1H-benzo[d]imidazol-2-yl)propanamido)propyl]acrylamide] was tested, and the IC50 [1] was 21.5 ± 10.7 nM, the IC50 [2] was 4.11 ± 1.88 nM and the “RBA ERα” value [2] was 8%. The IC50 [3] was 3.01 ± 4 nM, the “RBA ERβ” value [3] was 24.7% and the IC50 [4] was 26.9 ± 5.7 nM. The “% ERα remaining [1 μM]” value [5] was 120.3 ± 31.6%.
`CCC(=C(c1ccc(O)cc1)c1ccc(/C=C/C(=O)NCCCCNC(=O)CCc2nc3cc(OC)ccc3[nH]2)cc1)c1ccccc1` (mixture of isomers) [Compound 34, (E)-3-[4-((E/Z)-1-(4-Hydroxyphenyl)-2-phenylbut-1-enyl)phenyl]-N-[4-(3-(5-methoxy-1H-benzo[d]imidazol-2-yl)propanamido)butyl]acrylamide] was tested, and the IC50 [1] was 34.5 ± 3.5 nM, the IC50 [2] was 2.22 ± 0.76 nM and the “RBA ERα” value [2] was 14.9%. For the same molecule, the “% ERα remaining [1 μM]” value [5] was 132.9 ± 14.1%.
For `CCC(=C(c1ccc(O)cc1)c1ccc(/C=C/C(=O)NCCCCCNC(=O)CCc2nc3ccc(OC)cc3[nH]2)cc1)c1ccccc1` (mixture of isomers) [Compound 36, (E)-3-[4-((E/Z)-1-(4-Hydroxyphenyl)-2-phenylbut-1-enyl)phenyl]-N-[5-(3-(5-methoxy-1H-benzo[d]imidazol-2-yl)propanamido)pentyl]acrylamide], the IC50 [1] was 9.2 ± 3.2 nM, the IC50 [6] was 154 nM and the IC50 [2] was 1.56 ± 0.63 nM. For the same molecule, the “RBA ERα” value [2] was 21.1%, the IC50 [3] was 7.84 ± 0.25 nM and the “RBA ERβ” value [3] was 9.5%. For the same molecule, the IC50 [4] was 8.9 ± 4 nM, the IC50 ([7]; incubation time 10 min) was 36.3 nM and the IC50 ([7]; incubation time 30 min) was 153 nM. The “% ERα remaining [1 μM]” value [5] was 130.0 ± 15.1%.
In the case of `CCC(=C(c1ccc(O)cc1)c1ccc(/C=C/C(=O)NCCCCCCNC(=O)CCc2nc3cc(OC)ccc3[nH]2)cc1)c1ccccc1` (mixture of isomers) [Compound 38, (E)-3-[4-((E/Z)-1-(4-Hydroxyphenyl)-2-phenylbut-1-enyl)phenyl]-N-[6-(3-(5-methoxy-1H-benzo[d]imidazol-2-yl)propanamido)hexyl]acrylamide], the IC50 [1] is reported as 9.4 ± 2.7 nM, the “T/Ccorr MCF-7TamR” value [8] is reported as “about 40%” and the IC50 [2] is reported as 2.61 ± 2.25 nM. The “RBA ERα” value [2] was 12.6%, the IC50 [3] was 5.22 ± 0.65 nM and the “RBA ERβ” value [3] was 14.3%. For the same molecule, the IC50 [4] was 9 ± 3.3 nM and the “% ERα remaining [1 μM]” value [5] was 101.8 ± 1.9%.
In the case of `CCC(=C(c1ccc(O)cc1)c1ccc(/C=C/C(=O)NCCNC(=O)CCc2nc3cc(O)ccc3[nH]2)cc1)c1ccccc1` (mixture of isomers) [Compound 39, (E)-N-[2-(3-(5-Hydroxy-1H-benzo[d]imidazol-2-yl)propanamido)ethyl]-3-[4-((E/Z)-1-(4-hydroxyphenyl)-2-phenylbut-1-enyl)phenyl]acrylamide], the IC50 [1] is reported as 26 ± 6.6 nM, the IC50 [2] is reported as 1.45 ± 0.37 nM and the “RBA ERα” value [2] is reported as 22.8%. For the same molecule, the Emax at 1 µM [5, 11] was 1% and the “% ERα remaining [1 μM]” value [5] was 99.2 ± 3.5%.
For `CCC(=C(c1ccc(O)cc1)c1ccc(/C=C/C(=O)NCCCNC(=O)CCc2nc3cc(O)ccc3[nH]2)cc1)c1ccccc1` (mixture of isomers) [Compound 40, (E)-N-[3-(3-(5-Hydroxy-1H-benzo[d]imidazol-2-yl)propanamido)propyl]-3-[4-((E/Z)-1-(4-hydroxyphenyl)-2-phenylbut-1-enyl)phenyl]acrylamide], the IC50 [3] was 3.78 ± 1.54 nM, the “RBA ERβ” value [3] was 19.7% and the IC50 [4] was 18.7 ± 8.3 nM.
In the case of `CCC(=C(c1ccc(O)cc1)c1ccc(/C=C/C(=O)NCCCCNC(=O)CCc2nc3cc(O)ccc3[nH]2)cc1)c1ccccc1` (mixture of isomers) [Compound 41, (E)-N-[4-(3-(5-Hydroxy-1H-benzo[d]imidazol-2-yl)propanamido)butyl]-3-[4-((E/Z)-1-(4-hydroxyphenyl)-2-phenylbut-1-enyl)phenyl]acrylamide], the IC50 [3] is reported as 2.84 ± 1.31 nM, the “RBA ERβ” value [3] is reported as 26.2% and the IC50 [4] is reported as 15.9 ± 1.7 nM.
`CCC(=C(c1ccc(O)cc1)c1ccc(/C=C/C(=O)NCCCCCNC(=O)CCc2nc3cc(O)ccc3[nH]2)cc1)c1ccccc1` (mixture of isomers) [Compound 42, (E)-N-[5-(3-(5-Hydroxy-1H-benzo[d]imidazol-2-yl)propanamido)pentyl]-3-[4-((E/Z)-1-(4-hydroxyphenyl)-2-phenylbut-1-enyl)phenyl]acrylamide] was tested, and the IC50 [1] was 30.9 ± 8.7 nM, the IC50 [6] was 64 nM and the IC50 [2] was 1.28 ± 0.58 nM. The “RBA ERα” value [2] was 25.7%, the IC50 [3] was 3.81 ± 2.35 nM and the “RBA ERβ” value [3] was 19.5%. For the same molecule, the IC50 [4] was 46.5 ± 20.7 nM, the IC50 ([7]; incubation time 10 min) was 23.3 nM and the Emax at 1 µM [5, 11] was 8%. For the same molecule, the “% ERα remaining [1 μM]” value [5] was 92.0 ± 5.5%.
`CCC(=C(c1ccc(O)cc1)c1ccc(/C=C/C(=O)NCCCCCCNC(=O)CCc2nc3cc(O)ccc3[nH]2)cc1)c1ccccc1` (mixture of isomers) [Compound 43, (E)-N-[6-(3-(5-Hydroxy-1H-benzo[d]imidazol-2-yl)propanamido)hexyl]-3-[4-((E/Z)-1-(4-hydroxyphenyl)-2-phenylbut-1-enyl)phenyl]acrylamide] was tested, and the IC50 [3] was 7.8 ± 2.3 nM, the “RBA ERβ” value [3] was 9.5% and the IC50 [4] was 16.1 ± 7 nM.
With `CCC(=C(c1ccc(O)cc1)c1ccc(/C=C/C(=O)O)cc1)c1ccccc1` (mixture of isomers) [GW7604, (E/Z)-3-(4-((E)-1-(4-Hydroxyphenyl)-2-phenylbut-1-enyl)phenyl)acrylic acid, reference compound] the “repression of PGC1 binding at ERβ” value ([6]; 3 μM) was “complete repression”, the “T/Ccorr MCF-7TamR” value [8] was 68% and the “RBA ERβ” value [3] was 27.1%. The “reduction of PGC-1 binding at ERα” value ([7]; 1 μM, after 10 min of incubation) was “completely reduced”, the coactivator binding ([7]; 5 μM, after 30 min, ERα) was 45% and the Emax at 1 µM ([5]; MCF7, read-out: % efficacy [1 μM]) was 56%. For the same molecule, the “% ERα remaining [1 μM]” value [5] was 44.3 ± 12.1%.
In the case of `CC/C(=C(\c1ccc(O)cc1)c1ccc(OCCN(C)C)cc1)c1ccccc1` [4-OHT, (Z)-4-hydroxytamoxifen], the “T/Ccorr MDA-MB-231” value ([9]; 10 μM, 120 h) is reported as 10%, the “time to cytocidal effects, MDA-MB-231” value ([9]; 20 μM, time-dependent experiment) is reported as 24 h and the “T/Ccorr MCF-7TamR” value ([8]; 10 μM, 120 h) is reported as −57%. The “T/Ccorr MCF-7” value ([10]; 10 μM, 120 h) was −55%, the “time to cytocidal effects, MCF-7” value ([10]; 10 μM) was 48 h and the “time to cytocidal effects, MCF-7” value ([10]; 20 μM) was 24 h.
In the case of `C[C@]12CC[C@@H]3c4ccc(O)cc4C[C@@H](CCCCCCCCC[S+]([O-])CCCC(F)(F)C(F)(F)F)[C@H]3[C@@H]1CC[C@@H]2O` (stereo partly shown) [fulvestrant, reference compound], the “RBA ERβ” value [3] is reported as 10.0%.
